Assay results: BigSolDB 2.1

CC1(C)O[C@@H]2[C@@H](CO[C@@]3(COS(N)(=O)=O)OC(C)(C)O[C@@H]23)O1
solubility (mole fraction)
Conditions | 278.15 K | 283.15 K | 288.15 K | 293.15 K | 298.15 K | 303.15 K | 308.15 K | 313.15 K | 318.15 K | 323.15 K
in isopropanol | 0.00638 | 0.00814 | 0.0106 | 0.014 | 0.0186 | 0.0247 | 0.0299 | 0.0408 | 0.0594 | 0.0818
in methanol | 0.0401 | 0.0476 | 0.0569 | 0.0683 | 0.081 | 0.0951 | 0.112 | 0.131 | 0.148 | 0.174
in n-butanol | 0.00495 | 0.00629 | 0.00804 | 0.0103 | 0.0131 | 0.0172 | 0.0231 | 0.0298 | 0.0397 | 0.0538
in n-heptanol | 0.00256 | 0.00327 | 0.00425 | 0.0054 | 0.00686 | 0.00877 | 0.0116 | 0.015 | 0.0196 | 0.0256
in n-hexanol | 0.0029 | 0.00363 | 0.00496 | 0.00628 | 0.00807 | 0.0104 | 0.0138 | 0.018 | 0.0236 | 0.0312
in n-pentanol | 0.00373 | 0.00472 | 0.00601 | 0.00747 | 0.00969 | 0.0126 | 0.0157 | 0.0207 | 0.0272 | 0.0367
in n-propanol | 0.00715 | 0.00923 | 0.0116 | 0.0148 | 0.0187 | 0.0252 | 0.0333 | 0.0439 | 0.0591 | 0.0794
